Data: patent US12157730B2, “Heteroaryl derivative, method for producing same, and pharmaceutical composition comprising same as effective component” (VORONOI INC., priority 2019, dated 2024)

What follows are compounds tested against T1, Ba/F3 cell EGFR Exon20 ins NPH (Homo sapiens, UniProt P00533, INS773NPH) (assay: Ba/F3 cell proliferation suppression, EGFR Exon20 ins NPH). Details: GI50 class; Ba/F3 cell line with NPH inserted at Exon20 of EGFR; 72 hours.
T1 construct: expressed in transfected cells; host or cells: Ba/F3
Assay type: cell-based
Outline: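 72 h compound exposure, 0.3 nM–50 um (12 points, 3:1 dilution in DMSO); viability by CellTiter-Glo luminescence. Ba/F3 medium: RPMI-1640, 10% FBS, 5 ng/ml IL-3, 1 ug/ml puromycin for transduced cells. GI50 vs control, n=3.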

Structure (SMILES) | Ba/F3 (NPH) Activity
C=CC(=O)Nc1cc(Nc2cc(N3OCC[C@@H]3c3cccc(C#N)c3)ncn2)c(OC)cc1N1CCC(N2C[C@H]3C[C@@H]2CO3)CC1 [compound 389, N-(2-(4-((1R,4R)-2-oxa-5-azabicyclo[2.2.1]heptane-5-yl)piperidine-1-yl)-5-((6-((R)-3-(3-cyanophenyl)isoxazolidine-2-yl)pyrimidine-4-yl)amino)-4-methoxyphenyl) acrylamide] | A (GI50 < 50 nM)
C=CC(=O)Nc1cc(Nc2cc(N3OCC[C@@H]3c3cc(F)ccc3F)ncn2)c(OC)cc1N1CCC(N2CCO[C@@H](C)C2)CC1 [compound 821, N-(5-((6-((R)-3-(2,5-difluorophenyl)isoxazolidine-2-yl)pyrimidine-4-yl)amino)-4-methoxy-2-(4-((S)-2-methylmorpholino)piperidine-1-yl)phenyl) acrylamide] | A (GI50 < 50 nM)
C=CC(=O)Nc1cc(Nc2cc(N3OCC[C@@H]3c3cccc(F)c3)ncn2)c(OC)cc1N1CCN(C2CC2)CC1 [compound 830, N-(2-(4-cyclopropylpiperazine-1-yl)-5-((6-((R)-3-(3-fluorophenyl)isoxazolidine-2-yl)pyrimidine-4-yl)amino)-4-methoxyphenyl) acrylamide] | A (GI50 < 50 nM)
C=CC(=O)Nc1cc(Nc2cc(N3OCC[C@@H]3c3ccc(Cl)c(Cl)c3)ncn2)c(OC)cc1N1C[C@H]2C[C@@H]1CN2CC [compound 676, N-(5-((6-((R)-3-(3,4-dichlorophenyl)isoxazolidine-2-yl)pyrimidine-4-yl)amino)-2-((1R,4R)-5-ethyl-2,5-diazabicyclo[2.2.1]heptane-2-yl)-4-methoxyphenyl) acrylamide] | A (GI50 < 50 nM)
C=CC(=O)Nc1cc(Nc2cc(N3OCC[C@@H]3c3cccc(F)c3F)ncn2)c(OC)cc1N1CCC(N2CCN(C3CCC3)CC2)CC1 [Example 182, N-(2-(4-(4-cyclobutylpiperazine-1-yl)piperidine-1-yl)-5-((6-((R)-3-(2,3-difluorophenyl)isoxazolidine-2-yl)pyrimidine-4-yl)amino)-4-methoxyphenyl) acrylamide] | A (GI50 < 50 nM)
C#Cc1cccc([C@H]2CCON2c2cc(Nc3cc(NC(=O)C=C)c(N4CCN(CC)CC4)cc3OC)ncn2)c1 [compound 648, N-(2-(4-ethylpiperazine-1-yl)-5-((6-((R)-3-(3-ethynylphenyl)isoxazolidine-2-yl)pyrimidine-4-yl)amino)-4-methoxyphenyl) acrylamide] | A (GI50 < 50 nM)
C=CC(=O)Nc1cc(Nc2cc(N3OCC[C@@H]3Cc3cccc(F)c3C)ncn2)c(OC)cc1N1CCC(N2C[C@H]3C[C@@H]2CO3)CC1 [compound 1039, N-(2-(4-((1R,4R)-2-oxa-5-azabicyclo [2.2.1]heptane-5-yl)piperidine-1-yl)-5-((6-((S)-3-(3-fluoro-2-methylbenzyl)isoxazolidine-2-yl)pyrimidine-4-yl)amino)-4-methoxyphenyl) acrylamide] | A (GI50 < 50 nM)
C=CC(=O)Nc1cc(Nc2cc(N3OCC[C@@H]3c3ccc(Cl)c(Cl)c3)ncn2)c(OC)cc1N1CCC(N2CCN(C)CC2)CC1 [compound 681] | A (GI50 < 50 nM)
C=CC(=O)Nc1cc(Nc2cc(N3OCC[C@@H]3c3ccc(F)cc3F)ncn2)c(OC)cc1N1CCN(C2CCCC2)CC1 [compound 348, N-(2-(4-cyclopentylpiperazine-1-yl)-5-((6-((R)-3-(2,4-difluorophenyl)isoxazolidine-2-yl)pyrimidine-4-yl)amino)-4-methoxyphenyl) acrylamide] | A (GI50 < 50 nM)
C=CC(=O)Nc1cc(Nc2cc(N3OCC[C@H]3c3c(F)cccc3F)ncn2)c(OC)cc1N(C)CCN(C)C [compound 306, N-(5-((6-((S)-3-(2,6-difluorophenyl)isoxazolidine-2-yl)pyrimidine-4-yl)amino)-2-((2-(dimethylamino)ethyl)(methyl)amino)-4-methoxyphenyl) acrylamide] | B (50 nM ≤ GI50 < 500 nM)
C=CC(=O)Nc1cc(Nc2cc(N3OCC[C@@H]3c3cc(F)cc(Cl)c3)ncn2)c(OC)cc1N1CCC(N2C[C@@H]3CCN(C)[C@@H]3C2)CC1 [compound 540, N-(5-((6-((R)-3-(3-chloro-5-fluorophenyl)isoxazolidine-2-yl)pyrimidine-4-yl)amino)-4-methoxy-2-(4-((3aS,6aS)-1-methylhexahydropyrrolo [3,4-b]pyrrole-5(1H)-yl)piperidine-1-yl)phenyl)acrylamide] | A (GI50 < 50 nM)
C=CC(=O)Nc1cc(Nc2cc(N3OCC[C@@H]3c3cccc(F)c3F)ncn2)c(OC)cc1N1CCC(N2CCN(C)[C@@H](C)C2)CC1 [compound 335, N-(5-((6-((R)-3-(2,3-difluorophenyl)isoxazolidine-2-yl)pyrimidine-4-yl)amino)-2-(4-((S)-3,4-dimethylpiperazine-1-yl)piperidine-1-yl)-4-methoxyphenyl) acrylamide] | A (GI50 < 50 nM)
C=CC(=O)Nc1cc(Nc2cc(N3OCC[C@@H]3c3ccc4ccccc4c3)ncn2)c(OC)cc1N1CCO[C@@H](C)C1 [compound 659, N-(4-methoxy-2-((S)-2-methylmorpholino)-5-((6-((R)-3-(naphthalene-2-yl)isoxazolidine-2-yl)pyrimidine-4-yl)amino)phenyl)acrylamide] | B (50 nM ≤ GI50 < 500 nM)
C=CC(=O)Nc1cc(Nc2cc(N3OCC[C@@H]3c3cccc(Cl)c3Cl)ncn2)c(OC)cc1N1CCN(CC)CC1 [compound 480, N-(5-((6-((R)-3-(2,3-dichlorophenyl)isoxazolidine-2-yl)pyrimidine-4-yl)amino)-2-(4-ethylpiperazine-1-yl)-4-methoxyphenyl) acrylamide] | A (GI50 < 50 nM)
C=CC(=O)Nc1cc(Nc2cc(N3OCC[C@@H]3c3cccc(F)c3Cl)ncn2)c(OC)cc1N1CCC(N2C[C@@H]3CCN(C)[C@@H]3C2)CC1 [compound 448, N-(5-((6-((R)-3-(2-chloro-3-fluorophenyl)isoxazolidine-2-yl)pyrimidine-4-yl)amino)-4-methoxy-2-(4-((3aS,6aS)-1-methylhexahydropyrrolo [3,4-b]pyrrole-5(1H)-yl)piperidine-1-yl)phenyl)acrylamide] | A (GI50 < 50 nM)
C=CC(=O)Nc1cc(Nc2cc(N3OCC[C@@H]3c3ccc(Cl)c(Cl)c3)ncn2)c(OC)cc1N1CCOCC1 [compound 615, N-(5-((6-((R)-3-(3,4-dichlorophenyl)isoxazolidine-2-yl)pyrimidine-4-yl)amino)-4-methoxy-2-morpholinophenyl) acrylamide] | A (GI50 < 50 nM)
C=CC(=O)Nc1cc(Nc2cc(N3OCC[C@@H]3c3cccc(F)c3F)ncn2)c(OC)cc1N1CCC(N2CCN(C3CC3)[C@H](C)C2)CC1 [Example 176, N-(2-(4-((R)-4-cyclopropyl-3-methylpiperazine-1-yl)piperidine-1-yl)-5-((6-((R)-3-(2,3-difluorophenyl)isoxazolidine-2-yl)pyrimidine-4-yl)amino)-4-methoxyphenyl) acrylamide] | A (GI50 < 50 nM)
C=CC(=O)Nc1cc(Nc2cc(N3OCC[C@@H]3Cc3ccc(C(F)(F)F)cc3)ncn2)c(OC)cc1N1CCC(N2CCN(C3CC3)CC2)CC1 [compound 1050, N-(2-(4-(4-cyclopropylpiperazine-1-yl)piperidine-1-yl)-4-methoxy-5-((6-((S)-3-(4-(trifluoromethyl)benzyl)isoxazolidine-2-yl)pyrimidine-4-yl)amino)phenyl) acrylamide] | B (50 nM ≤ GI50 < 500 nM)
C=CC(=O)Nc1cc(Nc2cc(N3OCC[C@@H]3c3cccc4ccccc34)ncn2)c(OC)cc1N(C)CCN(C)C [compound 440, N-(2-((2-(dimethylamino)ethyl) (methyl)amino)-4-methoxy-5-((6-((R)-3-(naphthalene-1-yl)isoxazolidine-2-yl)pyrimidine-4-yl)amino)phenyl)acrylamide] | A (GI50 < 50 nM)
C=CC(=O)Nc1cc(Nc2cc(N3OCC[C@@H]3c3cccc(C#N)c3)ncn2)c(OC)cc1N1CCC(N2CCN(CC)CC2)CC1 [compound 399, N-(5-((6-((R)-3-(3-cyanophenyl)isoxazolidine-2-yl)pyrimidine-4-yl)amino)-2-(4-(4-ethylpiperazine-1-yl)piperidine-1-yl)-4-methoxyphenyl) acrylamide] | B (50 nM ≤ GI50 < 500 nM)
C=CC(=O)Nc1cc(Nc2cc(N3OCC[C@@H]3c3cccc(Cl)c3Cl)ncn2)c(OC)cc1N1CCC(N2CCOCC2)CC1 [compound 521, N-(5-((6-((R)-3-(2,3-dichlorophenyl)isoxazolidine-2-yl)pyrimidine-4-yl)amino)-4-methoxy-2-(4-morpholinopiperidine-1-yl)phenyl)acrylamide] | A (GI50 < 50 nM)
C=CC(=O)Nc1cc(Nc2cc(N3OCC[C@@H]3Cc3cccc(N(C)C)c3)ncn2)c(OC)cc1N1CCC(N2CCN(C3CC3)[C@H](C)C2)CC1 [compound 1046, N-(2-(4-((R)-4-cyclopropyl-3-methylpiperazine-1-yl)piperidine-1-yl)-5-((6-((S)-3-(3-(dimethylamino)benzyl)isoxazolidine-2-yl)pyrimidine-4-yl)amino)-4-methoxyphenyl) acrylamide] | B (50 nM ≤ GI50 < 500 nM)
C=CC(=O)Nc1cc(Nc2cc(N3OCC[C@@H]3c3cc(F)cc(Cl)c3)ncn2)c(OC)cc1N(C)CCN(C)C [compound 538, N-(5-((6-((R)-3-(3-chloro-5-fluorophenyl)isoxazolidine-2-yl)pyrimidine-4-yl)amino)-2-((2-(dimethylamino)ethyl)(methyl)amino)-4-methoxyphenyl)acrylamide] | A (GI50 < 50 nM)
C=CCN1CCN(C2CCN(c3cc(OC)c(Nc4cc(N5OCC[C@@H]5c5cc(F)cc(Cl)c5)ncn4)cc3NC(=O)C=C)CC2)CC1 [Example 214, N-(2-(4-(4-allylpiperazine-1-yl)piperidine-1-yl)-5-((6-((R)-3-(3-chloro-5-fluorophenyl)isoxazolidine-2-yl)pyrimidine-4-yl)amino)-4-methoxyphenyl) acrylamide] | A (GI50 < 50 nM)
